pKi: −log10 of the molar value. Non-standard residues stand in square brackets, D forms with d. Residues, ends and D or L forms follow the SMILES beside them. Orn = NCCC[C@H](N)C(=O)O; Nva = CCC[C@H](N)C(=O)O
Experiments:
[1] = biological target: T1, δ-opioid receptor (Rattus norvegicus, UniProt P33533); assay: biochemical; type: binding
T1 construct: displacement of the radioligands from the rat brain membrane preparations; from tissue; host or cells: rat brain membrane preparations

[2] = biological target: T2, μ-opioid receptor (Rattus norvegicus, UniProt P33535); assay: biochemical; type: binding
T2 construct: displacement of the radioligands from the rat brain membrane preparations; from tissue; host or cells: rat brain membrane preparations
T2 sequence (P33535 whole entry): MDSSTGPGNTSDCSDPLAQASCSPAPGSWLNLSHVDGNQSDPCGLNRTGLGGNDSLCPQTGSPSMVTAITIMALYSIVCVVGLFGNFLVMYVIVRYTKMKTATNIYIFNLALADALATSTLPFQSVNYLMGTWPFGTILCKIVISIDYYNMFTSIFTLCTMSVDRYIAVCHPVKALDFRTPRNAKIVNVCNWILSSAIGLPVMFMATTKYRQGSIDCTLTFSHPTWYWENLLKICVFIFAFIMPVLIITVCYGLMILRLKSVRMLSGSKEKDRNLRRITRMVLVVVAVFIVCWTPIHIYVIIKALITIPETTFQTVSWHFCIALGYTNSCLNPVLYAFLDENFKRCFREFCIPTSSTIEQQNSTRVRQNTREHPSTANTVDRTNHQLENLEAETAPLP

[3] = system: PBQ-induced writhing; assay: Mouse writhing test (PBQ); type: in vivo; settings: dose reducing the number of writhes by 50%
Description: The mouse writhing test detects both peripherally and centrally mediated analgesic effects. The test procedure is described in Siegmund et al., Proc. Soc. Exp. Biol. Med., 95, p. 729 (1957). In this test, a control group of albino mice was injected intraperitoneally with 0.3 ml/20 g body weight of a 0.02% solution of 2-phenyl-1,4-benzoquinone (PBQ). The writhing and contortional movements of the mice over the following 15 minutes were recorded. A second group of mice was given a dose of a synthetic dermorphin analog according to this invention, then allowed to wait a period of time before being administered the PBQ injection. The average number of writhes was then recorded and compared to the control group. The results of this test are expressed as the dosage of peptide that reduces the number of writhes by 50% at a given time interval (referred to as ED50).

[4] = Respiration rate (respiratory depression); type: in vivo, rat; settings: control 142 ± 5
Description: In addition to the mouse writhing data, respiratory depression was measured in certain treated mice. Respiratory depression is a commonly observed side effect characteristic of centrally-acting opiates. These reulsts are expressed in Table 5.

[5] = system: hot plate stimulus; assay: Mouse hot plate test; type: in vivo
Description: The mouse hot plate test is an assay which only detects centrally-mediated analgesic effects. This test was carried out using the protocol described in G. Woolfe and A. MacDonald, J. Pharmacol. Exp. Ther., 80, p. 300 ([…]).
Since most of the peptides of the invention were not potent centrally, it was impossible to determine an ED50 value. […] A result is considered insignificant if 30% of mice or lower have responded.

T1 sequence (P33533 whole entry): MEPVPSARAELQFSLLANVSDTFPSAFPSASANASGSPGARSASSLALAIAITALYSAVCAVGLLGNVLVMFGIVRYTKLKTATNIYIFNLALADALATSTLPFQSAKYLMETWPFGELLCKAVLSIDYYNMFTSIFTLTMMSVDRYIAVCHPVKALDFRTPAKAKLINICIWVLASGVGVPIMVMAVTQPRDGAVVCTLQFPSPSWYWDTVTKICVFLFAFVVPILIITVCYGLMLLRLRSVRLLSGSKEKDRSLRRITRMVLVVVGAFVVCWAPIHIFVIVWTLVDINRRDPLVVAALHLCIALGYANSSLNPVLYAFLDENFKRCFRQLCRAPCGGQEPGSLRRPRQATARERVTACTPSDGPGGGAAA

SMILES	pKi [1]	pKi [2]	Ki^δ /Ki^μ [2]	PBQ (20 min.) ED50 [3]	Breaths per min. ([4]; dose 30 mg/kg)	Breaths per min. ([4]; dose 100 mg/kg)	% of animals showing a 50% increase ([5]; dose 40 mg/kg, time 60 min.)	% of animals showing a 50% increase ([5]; dose 100 mg/kg, time 60 min.)	% of animals showing a 50% increase ([5]; dose 40 mg/kg, time 120 min.)	% of animals showing a 50% increase ([5]; dose 40 mg/kg, time 30 min.)	% of animals showing a 50% increase ([5]; dose 100 mg/kg, time 50 min.)	% of animals showing a 50% increase ([5]; dose 100 mg/kg, time 30 min.)
N=C(N)NCCC[C@H](NC(=O)[C@H](Cc1ccccc1)NC(=O)[C@@H](CCCNC(=N)N)NC(=O)[C@@H](N)Cc1ccc(O)cc1)C(N)=O [BCH-1766, H-Tyr-D-Arg-Phe-Arg-NH2] (H-Y[dR]FR-NH2)	4.92	7.01	121	–	–	–	–	–	–	–	–	–
CCC[C@H](NC(=O)[C@H](Cc1ccccc1)NC(=O)[C@@H](CCCNC(=N)N)NC(=O)[C@@H](N)Cc1ccc(O)cc1)C(N)=O [BCH-1788, H-Tyr-D-Arg-Phe-Nva-NH2] (H-Y[dR]F[Nva]-NH2)	< 5.60	7.93	> 216	1.3 mg/kg	163 ± 9 breaths per min.	125 ± 4 breaths per min.	45%	60%	–	–	–	–
CC[C@@H](C)[C@@H](NC(=O)[C@@H](N)Cc1ccc(O)cc1)C(=O)N[C@@H](Cc1ccccc1)C(=O)N[C@@H](CCCCN)C(N)=O [BCH-2203, H-Tyr-D-Ile-Phe-Lys-NH2] (H-Y[dI]FK-NH2)	< 5.60	8.13	> 338	0.8 mg/kg	–	–	–	–	80%	–	–	–
CC(C)C[C@@H](NC(=O)[C@@H](N)Cc1ccc(O)cc1)C(=O)N[C@@H](Cc1ccccc1)C(=O)N[C@@H](CCCCN)C(N)=O [BCH-2207, H-Tyr-D-Leu-Phe-Lys-NH2] (H-Y[dL]FK-NH2)	< 5.60	6.77	> 15	–	–	–	–	–	–	20%	0%	–
NCCCC[C@H](NC(=O)[C@H](Cc1ccccc1)NC(=O)[C@@H](CO)NC(=O)[C@@H](N)Cc1ccc(O)cc1)C(N)=O [BCH-2209, H-Tyr-D-Ser-Phe-Lys-NH2] (H-Y[dS]FK-NH2)	< 5.60	7.62	> 105	2.8 mg/kg	–	–	–	–	–	40%	–	40%
C[C@@H](NC(=O)[C@@H](N)Cc1ccc(O)cc1)C(=O)N[C@@H](Cc1ccccc1)C(=O)N[C@@H](CCCN)C(N)=O [BCH-2219, H-Tyr-D-Ala-Phe-Orn-NH2] (H-Y[dA]F[Orn]-NH2)	5.01	7.97	924.51	~ 1 mg/Kg	–	–	–	–	–	60%	–	–
CC[C@@H](C)[C@@H](NC(=O)[C@@H](N)Cc1ccc(O)cc1)C(=O)N[C@@H](Cc1ccccc1)C(=O)N[C@@H](CCCN)C(N)=O [BCH-2456, H-Tyr-D-Ile-Phe-Orn-NH2] (H-Y[dI]F[Orn]-NH2)	5.37	8.35	952.35	0.6 mg/kg	–	–	40%	50%	–	–	–	–
NCCC[C@H](NC(=O)[C@H](Cc1ccccc1)NC(=O)[C@@H](Cc1ccccc1)NC(=O)[C@@H](N)Cc1ccc(O)cc1)C(N)=O [BCH-2457, H-Tyr-D-Phe-Phe-Orn-NH2] (H-Y[dF]F[Orn]-NH2)	5.61	8.13	333.37	1.8 mg/kg	–	–	40%	–	–	–	–	–
CC(C)[C@@H](NC(=O)[C@@H](N)Cc1ccc(O)cc1)C(=O)N[C@@H](Cc1ccccc1)C(=O)N[C@@H](CCCN)C(N)=O [BCH-2458, H-Tyr-D-Val-Phe-Orn-NH2] (H-Y[dV]F[Orn]-NH2)	5.06	7.87	658.27	1.0 mg/kg	–	–	–	55%	–	30%	–	–
CC(C)C[C@@H](NC(=O)[C@@H](N)Cc1ccc(O)cc1)C(=O)N[C@@H](Cc1ccccc1)C(=O)N[C@@H](CCCN)C(N)=O [BCH-2459, H-Tyr-D-Leu-Phe-Orn-NH2] (H-Y[dL]F[Orn]-NH2)	4.73	7.11	240.10	–	–	–	–	–	–	–	–	–
NCCCC[C@H](NC(=O)[C@H](Cc1ccccc1)NC(=O)[C@@H](Cc1ccccc1)NC(=O)[C@@H](N)Cc1ccc(O)cc1)C(N)=O [BCH-2460, H-Tyr-D-Phe-Phe-Lys-NH2] (H-Y[dF]FK-NH2)	5.72	7.72	99.47	~ 3 mg/Kg	–	–	–	–	–	–	–	–
NCCC[C@H](NC(=O)[C@H](Cc1ccccc1)NC(=O)[C@@H](CO)NC(=O)[C@@H](N)Cc1ccc(O)cc1)C(N)=O [BCH-2461, H-Tyr-D-Ser-Phe-Orn-NH2] (H-Y[dS]F[Orn]-NH2)	4.80	7.88	1210.57	0.7 mg/kg	–	–	–	–	–	50%	–	–

— patent US5602100A, “Dermorphin analogs having pharmacological activity” (priority 1988, dated 1997)
